In patent US5532229A, “Topical administration of vitamin D to mammals” (priority 1994, dated 1996):
“Also recorded” adds a separate entry of the source.

Key:
[1] = Experiment 3: serum 1,25(OH)2 D3 during changes in dietary calcium; assay type: in vivo, Male Wistar rats
Text: Efficacy in the long-term: ability of oral and dermal vitamin D3 delivery to influence serum 1,25(OH)2 D3 levels in response to changes in dietary calcium.
Male, Wistar rats were obtained at 120-130 g, and placed on a 0.01% calcium, 0.7% phosphate diet that was vitamin D deficient (Teklad Test Diets, Madison, WI) this was for one week to help deplete vitamin D stores. For the next three weeks the rats were fed the vitamin D-deficient diet, but with normal, 0.5%, calcium. […]
Biochemical measurements. 1,25(OH)2 D3 in serum was measured by calf-thymus receptor-binding assay after initial purification of 1,25(OH)2 D3 with C18-OH cartridges (5). For the serum volumes that were minimal, serum was measured out in 50 μL increments, and the final result was adjusted for the volume of sample analyzed. […] The material eluting as 1,25(OH)2 D3 was evaporated and redissolved in acetonitrile: water for further purification with C18-OH cartridges and quantitation by thymus receptor assay, as described for serum. […]

[2] = Experiment 5: toxic effects after 2 weeks of high doses of dermal or oral vitamin D3; assay type: in vivo, Male Wistar rats
Protocol: Toxicity: Long-term effects of increasing doses of vitamin D3 given dermally or by gastric tube.
This experiment was to compare potential toxic effects of vitamin D3 given for a 2 wk period, at the near-fatal dose of 800 μg per day by gastric tube, or by dermal administration at 800 μg/day or 2600 μg/day. Another goal was find evidence of saturable dermal uptake by including [^14 C]-vitamin D3 to monitor its removal from the skin at the high doses of vitamin D3.
Male Wistar rats, 190±10 g were obtained and divided into three groups of 7. They were treated for 2 weeks with one the following: 2000 nmol/day of vitamin D3 by gastric tube; 800 μg/day applied to a 2×2 cm patch of skin on the back; 2600 μg/day skin. The day before killing, 66,000 counts per minute of [^14 C]-vitamin D3 was applied along with the dermal dose to permit a determination of uptake from the skin. The rats were killed after two weeks for analysis of serum, urine, kidney, and aorta. The calcium in urine and acid-treated homogenate of kidney was measured by chemical colorimetry; aorta calcium was measured by treating with nitric acid measuring calcium by atomic absorption.

C=C1CC[C@H](O)C/C1=C/C=C1\CCC[C@]2(C)[C@@H]([C@H](C)CCCC(C)C)CC[C@@H]12 [vitamin D3]
difference between the two routes in suppression of serum 1,25(OH)2 D3 levels ([1]; 20 nmol/250 g/day): no significant difference between the two routes
serum 1,25(OH)2 D3, effect of supplementation ([1]; 8 μg/day, gastric or dermal, all levels of calcium intake): lower serum 1,25(OH)2 D3 concentrations; also recorded: lower serum 1,25(OH)2 D3 at every level of calcium intake
urinary calcium (above the usual rat normal) ([2]; all treatments): > 1 μmol/mmol creatinine
serum calcium (above the normal rat value) ([2]; all treatments, 2 weeks): > 2.4 mmol/L
calcium accumulation in kidney and aorta ([2]; by gastric tube, 2 weeks): substantial in both the kidney and the aorta
Urine Ca/create Day 4 ([2]; dermal 800 μg/day): 7.9
Urine Ca/create Day 13 ([2]; dermal 800 μg/day): 10.0
Weight gain ([2]; dermal 800 μg/day): 91 g/2 wk
Total Aorta Calcium ([2]; dermal 800 μg/day, 2 weeks): < 10 nmol
Total Renal Calcium ([2]; dermal 800 μg/day, 2 weeks): 13.3 µmol/L
Urine Ca/create Day 4 ([2]; dermal 2600 μg/day): 10.3
Urine Ca/create Day 13 ([2]; dermal 2600 μg/day): 10.8
Weight gain ([2]; dermal 2600 μg/day): 76 g/2 wk
Total Aorta Calcium ([2]; dermal 2600 μg/day, 2 weeks): < 10 nmol
Total Renal Calcium ([2]; dermal 2600 μg/day, 2 weeks): 13.3 µmol/L
difference in serum 25(OH)D3 between the two dermal groups ([2]; dermal 800 vs 2600 μg/day): no statistical difference
Weight gain ([2]; dermal, same or higher doses, 2 wk): normal weight gain
calcium accumulation in kidney and aorta ([2]; dermally treated, 2 weeks): no evidence of either effect
Urine Ca/create Day 4 ([2]; gastric 800 μg/day): 12.0
Urine Ca/create Day 13 ([2]; gastric 800 μg/day): 9.9
Weight gain ([2]; gastric 800 μg/day): 7 g/2 wk
Total Aorta Calcium ([2]; gastric 800 μg/day, 2 weeks): 361 nmol
Total Renal Calcium ([2]; gastric 800 μg/day, 2 weeks): 77 µmol/L
serum 1,25(OH)2 D3, gastric vs skin groups ([2]; gastric, 2 weeks): lower serum 1,25(OH)2 D3 concentrations than with either skin group
Weight gain ([2]; near-toxic gastric dose, 2 wk): prevented the rats from gaining weight
